Reference: patent US7618643B2, “Growth factor delivery system for the healing of wounds and the prevention of inflammation and disease” (DirectContact LLC, priority 2002, dated 2009)

Experiments:
[1] = tested on: New Zealand white rabbits, eyes abraded with a needle; test: rabbit model, eyes abraded with a needle, medicated contact lens in right eye; format: in vivo
Procedure: New Zealand white rabbits were anesthetized, and then both eyes were abraded with a needle. A control contact lens was placed in the left eye, and a medicated contact lens was placed in the right eye of each rabbit for up to 4 hours prior to euthanasia. Control contact lenses (etafilcon A, an ionic lens with 58% water content) were washed with phosphate-buffered saline (PBS) prior to insertion. […] Rabbits were visually scored on a 0-4 scale (0 being the best and 4 being the worst) for corneal edema (which is a measure of wound healing), inflammation, and exudate production.

[2] = tested on: rabbit corneal epithelial cells; test: in vitro wound closure, epithelial cell sheets contacted with contact lenses; format: cell-based; settings: for healing: lens soaked in 10 ng/μL EGF
Procedure: (§1) Ocular cells were placed into a sterile plastic dish. This dish contained a 5-mm disk. The purpose of the disk was to prevent cells from growing in the covered area. When the disk was removed, a 5-mm “wound” or “hole” was present.
(§2) Contact lenses were then added to these cell sheets with the wounds. The lenses were left in contact with the cell sheets for a minimum of 30 minutes. Minimal medium was used to maintain the cell cultures. Cells were incubated at 35° C.±2° C. in 5% CO2. […] The contact lenses used were polymacon B, vifilcon A, and lidofilcon A hydrogel polymers.
(§3) The cell sheets were then viewed over time, and the diameter of the hole was measured.
(§4) The results are expressed in terms of closure of the in vitro wound over time.
Epithelial Cells and Tissue. Epithelial (rabbit corneal epithelial cells) cells were seeded on a dish and contacted with control and EGF-containing contact lenses. […] At 72 hours, there was a 43% difference in the closure rate between the EGF-treated epithelial tissue and the controls. The hydrogel material that was used was vifilcon A, an ionic polymer with a water content of 55%.
(§5) Closure rates were calculated by direct measurement of the diameter of the wound. Measurements were taken daily.

[3] = tested on: bovine corneal endothelial cells; test: in vitro wound closure, endothelial cell sheets contacted with contact lenses; format: cell-based
Procedure: as §1, §2, §3, §4, §5
Endothelial Cells and Tissue.

[4] = tested on: recurring epithelial defect; test: human testing of medicated lens; format: in vivo; settings: polymacon B lens soaked in 400 ppb EGF for 24 hours; one human patient; one administration
Procedure: This lens was placed in a human patient suffering from a recurring epithelial defect that was not responsive to traditional medical treatments. […] Desirably treatment lasts for at least one hour. This type of injury is normally treated by the repeated introduction of eye drops, sometimes as often as every 4-5 minutes. A contact lens of the present invention, however, was able to produce a positive result with only one administration.

[5] = vifilcon A lens soaked in 10 ng/μL EGF, 48 hours
[6] = vifilcon A lens soaked in 10 ng/μL EGF, 72 hours
[7] = polymacon B lens soaked in 10 ng/μL EGF, 72 hours
[8] = contact lens, 400 ppb HGH soak, right eye

In the case of epidermal growth factor [EGF], the “wound healing compared to control eyes” value ([1]; etafilcon A lenses soaked in 400 ppb EGF, first two hours after treatment) is reported as “healed wounds at an accelerated rate”, the toxicity in rabbits ([1]; etafilcon A lenses soaked in 400 ppb, 4 ppm or 10 ppm EGF) is reported as “No toxicity was observed” and the healing ([2]; 48 hours) is reported as 14%. For the same substance, the healing ([2]; 72 hours) was 25%, the “closure rate difference between controls and EGF treated” value ([2]; vifilcon A lens soaked in 5.0 ng/μL EGF, 48 hours) was 21% and the “difference in the closure rate” value ([2]; vifilcon A lens soaked in 5.0 ng/μL EGF, 72 hours) was 21%. The “difference in the closure rate between EGF-treated and non-EGF treated cells” value [2, 5] was 25%, the “difference in the closure rate between EGF-treated and controls” value [2, 6] was 43% and the “difference in the healing rates compared to a wound not contacted with any lens” value ([2]; vifilcon A lens with EGF, 48 hours) was 31%. For the same substance, the “increase in the healing rate (wound closure rate) compared to controls” value ([3]; lidofilcon A lens soaked in 10 ng/μL EGF, 48 hours) was 54%, the “difference in healing rate compared to controls” value ([3]; lidofilcon A lens soaked in 10 ng/μL EGF, 72 hours) was 44% and the “difference in closure between treated and untreated groups” value [3, 7] was 62%. For the same substance, the wound closed [3, 7] was 80%, the “difference in closure rate between EGF treated group and controls” value ([3]; vifilcon A lens soaked in 5 ng/μL EGF, 48 hours) was 31% and the tissue healed ([3]; vifilcon A lens soaked in 5 ng/μL EGF, 72 hours) was 53%. For the same substance, the “difference in healing rates compared to a control” value [3, 5] was 73%, the tissue healed [3, 6] was “completely healed” and the “clinical efficacy (wound healing)” value [4] was “Clinical efficacy (i.e., wound healing) was observed”.
human growth hormone [HGH] was tested, and the “toxicity to the ocular tissue” value ([1]; contact lens, 400 ppb HGH soak) was “no toxicity was observed”, the “inflammation compared to control eyes” value [1, 8] was “reduction in inflammation” and the “wound healing compared to control eyes” value [1, 8] was “increased wound healing”.
